This note sets out measurements from patent US10912767B2, “Anthracycline prodrugs and methods of making and using the same” (THE REGENTS OF THE UNIVERSITY OF COLORADO, priority 2015, dated 2021).

Each structure is given as a SMILES string. Like-named read-outs stand apart in the source and are kept apart here.

For data set [1], the system named is MDA-MB-231 breast cancer cells. Put plainly: Tumor cell growth inhibition, crystal violet (Example 2). In kind it is cell-based, human. Particulars: Homo sapiens, read-out: IC50. The source says:
(§1) In order to investigate the photolysis of the drugs in a system amenable to cell culture use, a custom UV irradiation apparatus was constructed, consisting of 3 small blacklight fluorescent bulbs (Southern New England Ultraviolet Co., λmax=350 nm) set between two ring stands and suspended at a height of 11.5 cm. The bulbs' housing was reflective aluminum so as to direct as much UV irradiation as possible downward toward the plate. Upon installation in sterile cell culture hood, the power of the system was measured at approximately 6-7 mW using a Scientech laser power meter. Prior to experimentation, the hood and irradiation apparatus was sterilized with 254 nm germicidal UV irradiation overnight. Using this setup, 100 μM of 4,5-dimethoxy-2-nitrobenyl alcohol (DMNA), photodoxazolidine R═H, and glucose-PEG-photodoxazoldine were irradiated in individual wells of a 24-well plate. Initially, 50 μL of a DMSO stock was diluted with 950 μL of PBS and aliquots of 50 μL were removed at various times (0-180 min), mixing by pipetting each time. The timepoints were analyzed by HPLC (method 2) and plotted as fractional conversion versus time. […] Therefore, a second experiment was performed in which the PBS was replaced with 1:1 acetonitrile:water. With this system of 5% DMSO/47.5% acetonitrile/47.5% water, no visible precipitation was produced over the course of the reaction.
(§2) The ovarian carcinoma line NCl/ADR-RES (ADR) was grown in high-glucose Dulbecco's Modified Eagle Medium (DMEM) supplemented with 10% fetal bovine serum (FBS), 200 units/mL of penicillin and 200 μg/mL of streptomycin. The breast carcinoma line MDA-MB-231 was cultured in low-glucose DMEM with the same additives. Both lines were maintained in a humidified incubator with 5% CO2/95% air at 37° C. UV irradiations were performed with the apparatus described above.
(§3) Growth inhibition experiments were performed by seeding cells into 96-well plates or 24-well plates at densities of 1000-1500 cells per well or 8000 cells per well, respectively, and allowing the cells to adhere overnight. The media was then replaced with a range of aqueous concentrations of the drug in question and allowed to incubate at 37° C. with the cells for a span of time (Inc1) which ranged from 1 min to 48 hours. Irradiation was performed at room temperature with the plate's lid removed and ranged from 1 to 30 min. In some experiments, the drug solution was removed following Inc1 and irradiated in clean media or PBS. Following irradiation, the cells were placed back into the 37° C. incubator for a second period of incubation (Inc2), which varied between 1 min and 24 h, prior to replacement with fresh media. Plates which received no irradiation but identical treatment otherwise were done in parallel. The cells were then grown until the no-drug control wells reached approximately 80% confluence or 5 days, whichever was shorter. […] The cells were fixed with 5% formalin in PBS, stained with crystal violet, washed with tap water, and air-dried. The stain was resolubilized in 50% isopropyl alcohol, 50% H2O containing 2% (w/v) SDS. The staining density was read on a multiwell plate reader at 588-600 nm. Percentage cell density was calculated relative to the irradiated no-drug control wells, plotted as a function of drug concentration, and fit using non-linear least squared analysis with a variable-slope dose response model in GraphPad Prism 5.0 software.
(§4) Although the introduction of a long-pass glass filter between the light source and the plate alleviated this effect to a small extent, a maximum irradiation time of 10 min was settled upon. […] Since a media change at that point would remove the cells as well, the re-adherence of the cell population was accomplished by the addition of a large volume (200 μL) of complete media following Inc2, and overnight incubation. Then, a full media change was done to remove the drug. […]

A short description of data set [2]: Photolysis timecourses, near UV blacklight 350 nm, HPLC. The format is physicochemical.
Description: as §1
The measured quantum yield of 0.002 for photodoxazolidine R═H (above) was lower than expected, which raised the possibility that the presence of the anthraquinone ring complex in the prodrugs was inhibiting photocleavage by quenching the activated state. To test whether this, the irradiation kinetics of DMNA (4, 5-dimethoxy-2-nitrobenzyl alcohol) was compared against photodoxazolidine R═H, which contains the DMNA unit as the photoactivating group. Additionally, glucose-PEG-photodoxazoldine was included for comparison; a synthetic precursor to this compound, azido-PEG-photodoxazolidine, is suspected of having a quantum yield of 0.01-0.02, which is 5-10-fold larger than photodoxazolidine. Irradiation was performed in 24-well cell culture dishes using the cell culture irradiation system described above with the soft-glass high-pass filter. […] In both cases, photodoxazolidine was the slowest to produce dox from the irradiation. In line with its quantum yield, glucose-PEG-photodoxazolidine reacted 4-5-fold faster than photodoxazolidine. However, DMNA was by far the fastest to undergo photochemistry in this system, converting to product approximately 30-fold faster than photodoxazolidine.

Data set [3] relates to MDA-MB-231 human breast cancer cells. Put plainly: cells. Conditions: Homo sapiens, MDA-MB-231, 24 h incubation, read-out: IC50. The format is cell-based. Here is the method:
The breast carcinoma line MDA-MB-231 was cultured in Minimum Essential Media (MEM) supplemented with 10% of fetal bovine serum (FBS), 100 units/mL of penicillin and 100 μg/mL of streptomycin, and 1 mM of sodium pyruvate. The cells were incubated at 37° C. in an atmosphere of 95% air and 5% CO2.
The cells were seeded to 96-well plates at a density of 1000 cells/well and allowed to adhere overnight. The prodrugs with various concentrations in MEM were added and the cells were incubated at 37° C. for 24 h. After the media was removed, the cells were washed with PBS two times. The cells in PBS (50 μL) were irradiated for 15 min, followed by incubating at room temperature for 30 min. The PBS was replaced with fresh media and the cells were grown until the no-drug control reached 80% confluency, or 5 days. Cell density was measured by crystal violet staining.
The membrane permeability of the photoactivated prodrugs and their cellular uptake by MDA-MB-231 human breast cancer cells were each monitored by fluorescence microscopy. After the cells were grown with the prodrugs for 24 h, they were washed with PBS two times to remove the prodrugs that remained outside of the cells. The cellular uptake of 10 μM glucose-photodoxazolidine and glucose-PEG-photodoxazolidine was monitored with the fluorescence of the anthraquinone fluorophore. The prodrugs were then activated inside of the cells by black lamp UV irradiation (maximum intensity at 350 nm) for 15 min. […] This drastic change of cytotoxicity presumably arises from membrane permeability of MARCKS-ED peptide and possibly some phototoxicity from longer irradiation time.

In data set [4] the test system is NCI/ADR-RES multi-drug resistant ovarian cancer cell line. The data set is described as follows: Tumor cell growth inhibition, crystal violet (Example 2). The format is cell-based. Particulars: Homo sapiens, 10 min.
Description: as §1, §2, §3, §4

Data set [5] can be described thus: Quantum yield of photocleavage, He-Cd laser 325 nm, HPLC. In kind it is physicochemical. On the procedure:
Initially, measurement of the quantum yield of photodoxazolidine R═H was done in a fully-absorbing solution of photoactive drug in a solution of 90% dimethylacetamide (DMA), 10% water in a 1×1 cm quartz cuvette equipped with a small magnetic stir bar. A stock of photodoxazolidine in DMA was diluted in 9:1 DMA:H2O to a final concentration of 373 μM in a final volume of 3.380 mL. […] The cuvette was placed into the path of an Omnichrome He-Cd laser (single-window power: 10.75 mW at 325 nm using a Scientech laser power meter). The solution was mixed by the stir bar, which was agitated with a magnetic stir plate placed vertically next to the cuvette. Aliquots of 20 μL were removed at times between 0 and 62 min of irradiation and those aliquots were analyzed by HPLC (method 2) for the ratio of dox to photodoxazolidine. The quantum yield was calculated from the ratio of molecules of doxorubicin (dox) formed to photons absorbed.
To allow for better comparison between the quantum yield of photocleavage of photodoxazolidine with the quantum yield for azido-PEG-photodoxazolidine, the measurement was retaken with 50% acetonitrile in water as a solvent. […] Photodoxazolidine (in DMF) was diluted with 30 mL of 50% acetonitrile to a final concentration of 104 μM. The solution was confirmed to be fully absorbing by monitoring the laser power exiting the cell throughout the course of the experiment, which never deviated from 0 mW. As above, the contents of the cell were mixed with a small magnetic stir bar. Aliquots of 50 μL were removed at various times and analyzed as described above. The calculated quantum yield in this solvent system was identical to that measured from the […] system used above.
Concentration of azido-PEG-photodoxazolidine was determined via absorbance (λ=480 nm, ε=11500 M^−1 cm^−1). A sample ([…]) was dissolved in 1 mL of ACN and transferred to a cuvette. A 12.4 mW Omnichrome HeCd was used to irradiate the solution for 30 min at 325 nm. Aliquots of 10 μL were collected at different times and analyzed by HPLC to determine the % Dox in relation to that of azido-PEG-photodoxazolidine. In calculating quantum yield: power (without cuvette)=12.4 mW, (with cuvette)=10.7 mW, incident light=11.55 mW; energy=0.462 J, 7.55×1017 photons; t=40 sec when % Dox=9.2. Experiments were performed in triplicate.
Azido-PEG-photodoxazolidine was irradiated with a 12.4 mW monochromatic laser at 325 nm for 30 min. Aliquots were collected throughout to determine the amount of azido-PEG-photodoxazolidine in relation to released doxorubicin, which was quantified by HPLC. […] The average of triplicate quantum yield experiments was 0.025. This value is in the low end of the quantum yield range, yet is beneficial because it signifies that UV must be applied for longer durations prior to release of the cytotoxic agent. This makes administration of this photo-activated prodrug safer, and its synthesis more practical.

Data set [6] concerns MDA-MB-231 breast carcinoma cells. The data set is described as follows: Tumor cell uptake by flow cytometry. Conditions: 500 nM, 30 min to 4 h, compared against doxorubicin. In kind it is cell-based, human. Here is the method: Uptake of the drugs by the cells was measured by flow cytometry. The cells were incubated with 500 nM photodoxazolidine R═H, azido-PEG-photodoxazolidine, or doxorubicin dissolved in 1:1 PBS:serum-free media for between 30 min and 4 h, after which the drug was removed and the cells washed with cold PBS. Cells were trypsinized to a single-cell suspension, rinsed again in cold PBS, and stored on ice for analysis by flow cytometry, monitoring the presence of the anthraquinone fluorophore (channel FL2). Cell populations were gated for intact cells in the side-scatter/forward-scatter plot and 10,000 gated events were scored for each timepoint. The mean fluorescence of the population was compared to the mean fluorescence of 10,000 gated events for an untreated population and the fold increase over background was plotted versus time of drug incubation.
Using MDA-MB-231 breast carcinoma cells, the cellular uptake of photodoxazolidine and azido-PEG-photodoxazolidine was analyzed by flow cytometry and compared against the uptake of doxorubicin.
(A flow cytometer gives signals particle by particle.)

For orientation: IC50 means the concentration needed to halve the response being measured. Take `COc1cc(C(C)OC(=O)N2COC3C(C)OC(OC4CC(O)(C(=O)CO)Cc5c(O)c6c(c(O)c54)C(=O)c4c(OC)cccc4C6=O)CC32)c([N+](=O)[O-])cc1OCC(=O)NCCOCCOCCOCCn1cc(CCC(=O)NC2C(O)OC(CO)C(O)C2O)nn1` (stereo not drawn) [Glucose-PEG-photodoxazolidine]: the IC50 was 0.027 ± 0.002 µM in data set [1] (10 min, MDA-MB-231, +UV 10 min, near UV 350 nm); > 10 µM in data set [1] (MDA-MB-231, prodrug alone, no UV); 0.75 µM in data set [3] (light +, 15 min UV); 2.4 µM in data set [3] (light −). Moreover, in data set [2] (100 μM, 1:1 acetonitrile:water, near UV 350 nm), the “k in ACN: H2O, relative rate constant for photocleavage” value was 0.036 min⁻¹. Moreover, the “k in PBS, relative rate constant for photocleavage” value in data set [2] (100 μM, PBS, near UV 350 nm) worked out at 0.011 min⁻¹. Besides, the “k in ACN: H2O, fold over photodoxazolidine” value in data set [2] (1:1 acetonitrile:water) was “(5.2)”. Besides, in data set [2] (PBS), the “k in PBS, fold over photodoxazolidine” value is “(4.2)”. Also, the “photochemical reaction, fold faster than photodoxazolidine” value in data set [2] (both solvents) is recorded as 4-5 fold.
`COc1cc(C(C)OC(=O)N2CO[C@@H]3[C@H](C)O[C@@H](O[C@H]4C[C@](O)(C(=O)CO)Cc5c(O)c6c(c(O)c54)C(=O)c4c(OC)cccc4C6=O)C[C@@H]32)c([N+](=O)[O-])cc1OCC(=O)NCCOCCOCCOCCN=[N+]=[N-]` (mixture of isomers) [Azido-PEG-photodoxazolidine]: it took 0.081 ± 0.007 µM to reach half-maximal inhibition in data set [4] (IC50). Further, in data set [5], the “quantum yield, fold larger than photodoxazolidine” value is on record as 5-10 fold. In addition, the doxorubicin released in data set [5] (40 sec irradiation, 12.4 mW laser at 325 nm) is 9.2%. In addition, the quantum yield was 0.025 in data set [5] (ACN, 325 nm, average of triplicate) and 0.01-0.02 in data set [5] (stated as suspected). Moreover, the “cellular uptake (cellular fluorescence)” value in data set [6] is “only marginally improved uptake over doxorubicin”.
